In PubChem BioAssay AID192 (DTP/NCI, 2004):
Where “and” joins values, the source holds several entries; their conditions need not be identical. Identical values can stand only once. Toxic doses and inconclusive results are not listed.

Test system: BDF1 mice, B16 melanoma ip, median survival T/C
Assay: NCI In Vivo Anticancer Drug Screen. Data for tumor model B16 Melanoma (intraperitoneal) in B6D2F1 (BDF1) mice
Conditions: endpoint: median survival time, higher = longer survival
Outline: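 In this screen, activity was judged from survival or tumor size in treated versus vehicle-treated tumor-bearing mice, reported as T/C.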

[1] = dose: 100.0 mg/kg/injection, schedule: Q01DX009 (ip), vehicle: Klucel (hydroxypropylcellulose) (HPC)
[2] = dose: 200.0 mg/kg/injection, schedule: Q01DX009 (ip), vehicle: Klucel (hydroxypropylcellulose) (HPC)
[3] = dose: 100.0 mg/kg/injection, schedule: Q01DX009 (ip), vehicle: saline with Tween-80
[4] = dose: 200.0 mg/kg/injection, schedule: Q01DX009 (ip), vehicle: saline with Tween-80
[5] = dose: 400.0 mg/kg/injection, schedule: Q01DX009 (ip), vehicle: saline with Tween-80
[6] = dose: 400.0 mg/kg/injection, schedule: Q01DX009 (ip), vehicle: Klucel (hydroxypropylcellulose) (HPC)
[7] = dose: 25.0 mg/kg/injection, schedule: Q01DX009 (ip), vehicle: saline
[8] = dose: 50.0 mg/kg/injection, schedule: Q01DX009 (ip), vehicle: saline
[9] = dose: 100.0 mg/kg/injection, schedule: Q01DX009 (ip), vehicle: saline
[10] = dose: 50.0 mg/kg/injection, schedule: Q01DX009 (ip), vehicle: saline with Tween-80
[11] = dose: 200.0 mg/kg/injection, schedule: Q01DX009 (ip), vehicle: saline
[12] = dose: 400.0 mg/kg/injection, schedule: Q01DX009 (ip), vehicle: saline
[13] = dose: 12.5 mg/kg/injection, schedule: Q01DX009 (ip), vehicle: saline with Tween-80
[14] = dose: 25.0 mg/kg/injection, schedule: Q01DX009 (ip), vehicle: saline with Tween-80
[15] = dose: 12.5 mg/kg/injection, schedule: Q01DX009 (ip), vehicle: saline
[16] = dose: 5.0 mg/kg/injection, schedule: Q01DX009 (ip), vehicle: saline
[17] = dose: 10.0 mg/kg/injection, schedule: Q01DX009 (ip), vehicle: saline
[18] = dose: 20.0 mg/kg/injection, schedule: Q01DX009 (ip), vehicle: saline

Question: For `O=c1oc2c(CN3CCCCC3)c(O)ccc2c2c1CCCC2`, which T/C (dose: 64.0 mg/kg/injection, schedule: Q01DX009 (ip), vehicle: Klucel (hydroxypropylcellulose) (HPC)) is on record?
Answer: 112 % of control

Question: What about the T/C (dose: 128.0 mg/kg/injection, schedule: Q01DX009 (ip), vehicle: Klucel (hydroxypropylcellulose) (HPC)) of the same molecule?
Answer: 98 % of control

Question: What about the T/C (dose: 256.0 mg/kg/injection, schedule: Q01DX009 (ip), vehicle: Klucel (hydroxypropylcellulose) (HPC)) of the same molecule?
Answer: 106 % of control

Question: What about the T/C (dose: 512.0 mg/kg/injection, schedule: Q01DX009 (ip), vehicle: Klucel (hydroxypropylcellulose) (HPC)) of the same molecule?
Answer: 93 % of control

Question: What does the source list for `O=S(=O)(Nc1ccccc1)c1ccc(C2CC3(Cl)C(Cl)=C(Cl)C2(Cl)C3(Cl)Cl)cc1` (stereo not given)?
Answer: T/C [1]: 100 % of control; T/C [2]: 87 % of control

Question: For `O=CNNC=O`, which T/C [3] is on record?
Answer: 86 % of control

Question: What about the T/C [4] of the same molecule?
Answer: 95 % of control

Question: And the T/C [5]?
Answer: 90 % of control

Question: How did the T/C [1] turn out when `CCOC(=O)/C=C(\C)Nc1ccc(F)cc1` was run?
Answer: 88 % of control

Question: And the T/C [2]?
Answer: 97 % of control

Question: And the T/C [6]?
Answer: 91 % of control

Question: `C/C=C/C1=CC(=O)C(O)C1O` (stereo not given) was tested. Which T/C (dose: 25.0 mg/kg/injection, schedule: Q01DX009 (ip), vehicle: water) did it give?
Answer: 92 % of control

Question: What about the T/C (dose: 50.0 mg/kg/injection, schedule: Q01DX009 (ip), vehicle: water) of the same molecule?
Answer: 117 % of control

Question: What about the T/C (dose: 100.0 mg/kg/injection, schedule: Q01DX009 (ip), vehicle: water) of the same molecule?
Answer: 122 % of control

Question: What about the T/C (dose: 200.0 mg/kg/injection, schedule: Q01DX009 (ip), vehicle: water) of the same molecule?
Answer: 122 % of control

Question: `COc1ccc(OCC(O)CN2CCN(c3ccc(Cl)cc3)CC2)cc1` (stereo not given) was tested. Which T/C (dose: 6.25 mg/kg/injection, schedule: Q01DX009 (ip), vehicle: Klucel (hydroxypropylcellulose) (HPC)) did it give?
Answer: 97 % of control

Question: What about the T/C (dose: 12.5 mg/kg/injection, schedule: Q01DX009 (ip), vehicle: Klucel (hydroxypropylcellulose) (HPC)) of the same molecule?
Answer: 105 % of control

Question: What about the T/C (dose: 25.0 mg/kg/injection, schedule: Q01DX009 (ip), vehicle: Klucel (hydroxypropylcellulose) (HPC)) of the same molecule?
Answer: 104 % of control

Question: What about the T/C (dose: 50.0 mg/kg/injection, schedule: Q01DX009 (ip), vehicle: Klucel (hydroxypropylcellulose) (HPC)) of the same molecule?
Answer: 111 % of control

Question: And the T/C [1]?
Answer: 108 % of control

Question: What about the T/C [2] of the same molecule?
Answer: 105 % of control

Question: With `O=C1NC(=O)C2C3C=CC(C3)C12` (stereo not given) as the molecule, how does the T/C [7] read?
Answer: 105 % of control

Question: And the T/C [8]?
Answer: 105 % of control

Question: And the T/C [9]?
Answer: 113 % of control

Question: Which results are given for `CC[C@@]1(O)C[C@H](OC2CC(N(C)C)C(OC3CC(O)C(O[C@@H]4O[C@@H](C)C(=O)C=C4N)C(C)O3)C(C)O2)c2c(cc3c(c2O)C(=O)c2c(O)ccc(O)c2C3=O)[C@H]1C(=O)OC` (stereo not given in full)?
Answer: T/C (dose: 0.03 mg/kg/injection, schedule: Q01DX001 (ip), vehicle: saline): 113 % of control; T/C (dose: 0.05 mg/kg/injection, schedule: Q01DX001 (ip), vehicle: saline): 109 % of control; T/C (dose: 0.38 mg/kg/injection, schedule: Q01DX009 (ip), vehicle: saline): 178 % of control; T/C (dose: 0.75 mg/kg/injection, schedule: Q01DX009 (ip), vehicle: saline): 167 % of control; T/C (dose: 1.5 mg/kg/injection, schedule: Q01DX009 (ip), vehicle: saline): 223 % of control; T/C (dose: 1.6 mg/kg/injection, schedule: Q01DX001 (ip), vehicle: saline): 159 % of control; T/C (dose: 3.2 mg/kg/injection, schedule: Q01DX001 (ip), vehicle: saline): 114 % of control; T/C (dose: 1.0 micrograms/kg/injection, schedule: Q01DX005 (ip), vehicle: Klucel (hydroxypropylcellulose) (HPC)): 110 % of control; T/C (dose: 2.0 micrograms/kg/injection, schedule: Q01DX005 (ip), vehicle: Klucel (hydroxypropylcellulose) (HPC)): 100 % of control; T/C (dose: 4.0 micrograms/kg/injection, schedule: Q01DX005 (ip), vehicle: Klucel (hydroxypropylcellulose) (HPC)): 107 % of control; T/C (dose: 8.0 micrograms/kg/injection, schedule: Q01DX005 (ip), vehicle: Klucel (hydroxypropylcellulose) (HPC)): 103 % of control

Question: How did the T/C (dose: 12.5 mg/kg/injection, schedule: Q01DX009 (ip), vehicle: distilled water + Tween-80) turn out when `N#Cc1ccc(NC(=O)Nc2nccs2)cc1` was run?
Answer: 115 % of control

Question: What does the source list for `CCNc1nc(NC(C)C)nc(SC)n1`?
Answer: T/C [10]: 117 % of control; T/C [3]: 106 % of control; T/C [4]: 104 % of control

Question: `Cc1c(Cl)cccc1NC(=O)c1ccc(Cl)cc1Cl` was tested. Which T/C (dose: 100.0 mg/kg/injection, schedule: Q04DX003 (ip), vehicle: Klucel (hydroxypropylcellulose) (HPC)) did it give?
Answer: 95 % of control

Question: What about the T/C (dose: 200.0 mg/kg/injection, schedule: Q04DX003 (ip), vehicle: Klucel (hydroxypropylcellulose) (HPC)) of the same molecule?
Answer: 102 % of control

Question: What about the T/C (dose: 400.0 mg/kg/injection, schedule: Q04DX003 (ip), vehicle: Klucel (hydroxypropylcellulose) (HPC)) of the same molecule?
Answer: 100 % of control

Question: `CC(O)C(NC(=O)OC(C)(C)C)C(=O)O` (stereo not given) was tested. Which T/C [11] did it give?
Answer: 105 % of control

Question: And the T/C [12]?
Answer: 93 % of control

Question: With `Cc1cc2nc(Cc3ccccc3)[nH]c2cc1C` as the molecule, how does the T/C [13] read?
Answer: 102 % of control

Question: What about the T/C [14] of the same molecule?
Answer: 105 % of control

Question: And the T/C [10]?
Answer: 94 % of control

Question: Which results are given for `CC(C)NNC(=O)c1ccncc1`?
Answer: T/C [15]: 107 % of control; T/C [7]: 94 % of control and 101 % of control; T/C [8]: 95 % of control and 101 % of control; T/C [9]: 110 % of control; T/C [11]: 92 % of control and 104 % of control

Question: Which T/C (dose: 0.62 mg/kg/injection, schedule: Q01DX009 (ip), vehicle: saline with Tween-80) does the source give for `COc1c(O)cc2c(c1OC)-c1ccc(OC)c(=O)cc1[C@@H](NC(C)=O)CC2` here?
Answer: 123 % of control

Question: For `OC(c1ccccc1)C1(c2ccccc2)OCCO1` (stereo not given), which T/C [3] is on record?
Answer: 100 % of control

Question: What about the T/C [4] of the same molecule?
Answer: 95 % of control

Question: And the T/C [5]?
Answer: 90 % of control

Question: How did the T/C (dose: 6.25 mg/kg/injection, schedule: Q01DX009 (ip), vehicle: saline with Tween-80) turn out when `CCOc1ccc2c(ccc(/C=C\c3cc(C)c4cccnc4c3O)[n+]2C)c1` was run?
Answer: 102 % of control

Question: What about the T/C [13] of the same molecule?
Answer: 101 % of control

Question: Which results are given for `N#CCc1ccccc1S(=O)(=O)O`?
Answer: T/C [9]: 103 % of control; T/C [11]: 104 % of control; T/C [12]: 104 % of control

Question: Which T/C (dose: 100.0 mg/kg/injection, schedule: Q01DX009 (ip), vehicle: gum acacia) does the source give for `CCCCCCCCCCCCCCCCCCNC(=O)Nc1c(C)cc(C)cc1C` here?
Answer: 88 % of control

Question: Which results are given for `NC(N)=NCCc1ccccc1`?
Answer: T/C [16]: 119 % of control; T/C [17]: 111 % of control; T/C [18]: 114 % of control

Question: What does the source list for `CCCC(=O)Oc1ccc(/C=N/NC(N)=S)nc1`?
Answer: T/C [13]: 105 % of control; T/C [14]: 105 % of control; T/C [10]: 106 % of control and 112 % of control; T/C [3]: 116 % of control; T/C [4]: 110 % of control

Question: What does the source list for `COc1cccc2c1cc([N+](=O)[O-])c1c(C(=O)O)cc3c(c12)OCO3`?
Answer: T/C (dose: 2.5 mg/kg/injection, schedule: Q01DX009 (ip), vehicle: Klucel (hydroxypropylcellulose) (HPC)): 106 % of control; T/C (dose: 5.0 mg/kg/injection, schedule: Q01DX009 (ip), vehicle: Klucel (hydroxypropylcellulose) (HPC)): 111 % of control; T/C (dose: 10.0 mg/kg/injection, schedule: Q01DX009 (ip), vehicle: Klucel (hydroxypropylcellulose) (HPC)): 94 % of control

Question: For `COc1ccc(C(=O)/C(Br)=C/C(=O)O)cc1`, which T/C (dose: 2.5 mg/kg/injection, schedule: Q01DX009 (ip), vehicle: saline) is on record?
Answer: 99 % of control

Question: What about the T/C [16] of the same molecule?
Answer: 96 % of control

Question: And the T/C [17]?
Answer: 95 % of control and 98 % of control

Question: And the T/C [18]?
Answer: 96 % of control

Question: And the T/C (dose: 40.0 mg/kg/injection, schedule: Q01DX009 (ip), vehicle: saline)?
Answer: 95 % of control and 100 % of control

Question: What does the source list for `CCOC(=O)NNC(N)=S`?
Answer: T/C [1]: 100 % of control; T/C [2]: 93 % of control; T/C [6]: 93 % of control

Question: With `CC12CCC(O)CC1CCC1C2CCC2(C)C(c3ccc(=O)oc3)C(O)C3OC132` (stereo not given) as the molecule, how does the T/C (dose: 0.94 mg/kg/injection, schedule: Q01DX009 (ip), vehicle: Klucel (hydroxypropylcellulose) (HPC)) read?
Answer: 103 % of control

Question: What about the T/C (dose: 1.87 mg/kg/injection, schedule: Q01DX009 (ip), vehicle: Klucel (hydroxypropylcellulose) (HPC)) of the same molecule?
Answer: 98 % of control

Question: What about the T/C (dose: 3.5 mg/kg/injection, schedule: Q01DX009 (ip), vehicle: Klucel (hydroxypropylcellulose) (HPC)) of the same molecule?
Answer: 94 % of control

Question: For `N#Cc1cccnc1.NCCNCCN.[Br-].[Pt+4]`, which T/C [15] is on record?
Answer: 100 % of control

Question: What about the T/C [7] of the same molecule?
Answer: 94 % of control

Question: And the T/C [8]?
Answer: 99 % of control

Question: What about the T/C [9] of the same molecule?
Answer: 99 % of control

Question: What about the T/C [11] of the same molecule?
Answer: 89 % of control
